Patent publication US20220160739A1, “METHODS FOR TREATING SUBJECTS WITH CHRONIC KIDNEY DISEASE” (Janssen Pharmaceutica NV, priority 2019, published 2022)

What was measured:
[1] = system: patients with type 2 diabetes mellitus (T2DM), Stage 2 or 3 chronic kidney disease (CKD) and macroalbuminuria; assay: Randomized, double-blind, placebo-controlled study of canagliflozin: efficacy (renal and CV endpoints, HbA1c, body weight, blood pressure); assay type: in vivo, human
Text: (§1) This was a randomized, double-blind, event-driven, placebo-controlled, parallel-group, 2-arm, multicenter study to evaluate the effects of canagliflozin relative to placebo on progression to doubling of serum creatinine, end-stage kidney disease (ESKD), renal or cardiovascular (CV) death in patients with type 2 diabetes mellitus (T2DM), Stage 2 or 3 chronic kidney disease (CKD) and macroalbuminuria, who were receiving standard of care including a maximum tolerated labeled daily dose of an angiotensin-converting enzyme inhibitor (ACEi) or angiotensin receptor blocker (ARB). […] The safety objective was to assess the overall safety and tolerability of canagliflozin.
Randomization included a 1:1 ratio to canagliflozin 100 mg or matching placebo, stratified by screening estimated glomerular filtration rate (eGFR) [≥30 to less than 45, ≥45 to less than 60, ≥60 to less than 90 mL/min/1.73 m^2]. The primary efficacy composite endpoint was the time to the first occurrence of doubling of serum creatinine, ESKD, and renal or CV death. The major secondary efficacy endpoints (tested in the following hierarchical order) included: • Composite of CV death and hospitalized heart failure • Composite of CV death, non-fatal MI, and non-fatal stroke (i.e., 3-point “MACE”) • Hospitalized heart failure • Composite of doubling of serum creatinine, ESKD, and renal death • CV death • All-cause death • Composite of CV death, non-fatal MI, non-fatal stroke, hospitalized heart failure, and hospitalized unstable angina
A planned interim analysis was conducted at 413 primary endpoints and the IDMC subsequently recommended to stop the study early for efficacy based on pre-specified stopping criteria.
The primary analysis was performed in the Intent-To-Treat (ITT) analysis set (i.e., all randomized subjects through end of study) using a stratified Cox proportional hazard model including treatment as the explanatory variable and stratified by screening eGFR. Secondary endpoints were similarly analyzed.
As a result of stopping at the interim analysis, the primary endpoint was tested at a two-sided significance level of 0.022 based on the alpha spending function, whereas secondary endpoints were tested at 0.038.
Analyses were performed to assess the impact of adjusting for postbaseline measurements of HbA1c and systolic blood pressure in the primary efficacy analysis. A series of proportional hazard regression models which included postbaseline HbA1c and systolic blood pressure measurements as time-varying covariates were fit. Because changes in HbA1c have a delayed effect on cardiovascular risk, several models were constructed. In each model, HbA1c was evaluated first using the single coincident value, a single lagged value, and then as a running mean average value. Single coincident systolic blood pressure measurements were used for all analyses.

[2] = system: patients with type 2 diabetes mellitus (T2DM), Stage 2 or 3 chronic kidney disease (CKD) and macroalbuminuria; assay: Randomized, double-blind, placebo-controlled study of canagliflozin: safety and tolerability (adverse events); assay type: in vivo
Text: as §1, with “canagliflozin. […]” for “canagliflozin.”
Treatment-emergent safety analyses and summaries were presented using the On-Treatment analysis set (i.e., all treated subjects through 30 days after last dose), whereas analyses of amputation, fracture, and malignancy were performed using the On-Study analysis set (i.e., all treated subjects through end of study).
Safety analyses were performed using either the On-Treatment analysis set (treated subjects up to 30 days of last dose) or the On-Study analysis set (treated subjects through the end of study).

[3] = canagliflozin compared to placebo, ITT
[4] = canagliflozin minus placebo, end of treatment
[5] = Cox proportional hazards model, On-Study
[6] = denominators restricted to females
[7] = renal related AE by preferred term

Structure (SMILES): Cc1ccc(C2OC(CO)C(O)C(O)C2O)cc1Cc1ccc(-c2ccc(F)cc2)s1 (stereo not drawn) [Canagliflozin]
- HbA1c placebo-subtracted difference of LS means for change from baseline ([1]; 30-45 eGFR stratum): 0.03
- HbA1c placebo-subtracted difference of LS means for change from baseline ([1]; 45-60 eGFR stratum): −0.18
- HbA1c placebo-subtracted difference of LS means for change from baseline ([1]; 60 to <90 eGFR stratum): −0.21
- Kaplan-Meier plot, primary composite endpoint: initial separation ([1]; FIG. 1, maintained across the entire study): 52 Week
- Treatment HR for the primary efficacy outcome, adjusted for time-varying HbA1c and systolic blood pressure ([1]; HbA1c Concurrent in the Cox model): 0.724
- Treatment HR for the primary efficacy outcome, adjusted for time-varying HbA1c and systolic blood pressure ([1]; HbA1c Lagged By 1 Visit): 0.737
- Treatment HR for the primary efficacy outcome, adjusted for time-varying HbA1c and systolic blood pressure ([1]; HbA1c Running Mean): 0.740
- All-Cause Mortality (%) ([1]; ITT): (7.6) %
- All-Cause Mortality EVRT ([1]; ITT): 29.04 per 1000 patient-years
- All-Cause Mortality n/N ([1]; ITT): 168/2202
- Composite of CV Death/NFMI/NF Stroke/HHF/HUSA (%) ([1]; ITT): (12.4) %
- Composite of CV Death/NFMI/NF Stroke/HHF/HUSA EVRT ([1]; ITT): 49.35 per 1000 patient-years
- Composite of CV Death/NFMI/NF Stroke/HHF/HUSA n/N ([1]; ITT): 273/2202
- Composite of DoSC/ESKD/Renal Death (%) ([1]; ITT): (6.9) %
- Composite of DoSC/ESKD/Renal Death EVRT ([1]; ITT): 26.99 per 1000 patient-years
- Composite of DoSC/ESKD/Renal Death n/N ([1]; ITT): 153/2202
- HHF (%) ([1]; ITT): (4.0) %
- HHF (hospitalized heart failure) n/N ([1]; ITT): 89/2202
- HHF EVRT ([1]; ITT): 15.65 per 1000 patient-years
- MACE (%) ([1]; ITT): (9.9) %
- MACE EVRT ([1]; ITT): 38.71 per 1000 patient-years
- MACE n/N ([1]; ITT, CV death, non-fatal MI, non-fatal stroke): 217/2202
- Composite of CV Death/HHF (%) ([1]; ITT, canagliflozin 100 mg): (8.1) %
- Composite of CV Death/HHF EVRT ([1]; ITT, canagliflozin 100 mg): 31.47 per 1000 patient-years
- Composite of CV Death/HHF n/N ([1]; ITT, canagliflozin 100 mg): 179/2202
- Doubling of Serum Creatinine EVRT ([1]; ITT, canagliflozin 100 mg): 20.73 per 1000 patient-years
- ESKD EVRT ([1]; ITT, canagliflozin 100 mg): 20.37 per 1000 patient-years
- Primary Composite Endpoint EVRT (event rate) ([1]; ITT, canagliflozin 100 mg): 43.21 per 1000 patient-years
- Renal Death EVRT ([1]; ITT, canagliflozin 100 mg): 0.35 per 1000 patient-years
- Primary composite endpoint HR, supportive analysis ([1]; On-Treatment analysis set, vs placebo): 0.64
- Doubling of Serum Creatinine HR (95% CI) [1, 3]: 0.60 (0.48, 0.76)
- ESKD HR (95% CI) [1, 3]: 0.68 (0.54, 0.86)
- Body weight least-squares mean difference, change from baseline [1, 4]: −1.72%
- HbA1c least-squares mean difference, change from baseline [1, 4]: −0.13%
- Systolic blood pressure least-squares mean difference, change from baseline [1, 4]: −2.81 mmHg
- Reduction of risk of the primary composite endpoint ([1]; compared to placebo, ITT): 30%
- Reduction of risk of certain primary endpoints ([1]; on top of current standard of care that includes ACEi or ARB therapy): about 25%
- Exploratory hard composite of ESKD, renal death and CV death HR ([1]; vs placebo): 0.73
- Composite of CV death and hospitalized heart failure HR ([1]; vs placebo, ITT): 0.69
- Composite of CV death and hospitalized heart failure risk reduction ([1]; vs placebo, ITT): 31%
- Composite of doubling of serum creatinine, ESKD, and renal death HR ([1]; vs placebo, ITT): 0.66
- Composite of doubling of serum creatinine, ESKD, and renal death risk reduction ([1]; vs placebo, ITT): 34%
- Hospitalization for heart failure HR ([1]; vs placebo, ITT): 0.61
- Hospitalization for heart failure risk reduction ([1]; vs placebo, ITT): 39%
- MACE HR ([1]; vs placebo, ITT): 0.80
- MACE risk reduction ([1]; vs placebo, ITT): 20%
- Adjudicated fracture: HR (vs. Placebo) [2, 5]: 0.98
- Atraumatic lower limb amputation: HR (vs. Placebo) [2, 5]: 1.11
- Final vital status: Alive n (%) ([2]; ITT analysis set, N = 2202): 2030 (92.2)
- Final vital status: Died n (%) ([2]; ITT analysis set, N = 2202): 168 (7.6)
- Adjudicated fracture: IRD (minus Placebo) ([2]; On-Study): −0.29 /1000 subject-years
- Adjudicated fracture: incidence rate ([2]; On-Study): 11.80 /1000 subject-years
- Adjudicated fracture: number of events ([2]; On-Study): 80
- Atraumatic lower limb amputation: IRD (minus Placebo) ([2]; On-Study): 1.16 /1000 subject-years
- Atraumatic lower limb amputation: incidence rate ([2]; On-Study): 12.34 /1000 subject-years
- Atraumatic lower limb amputation: number of events ([2]; On-Study): 87
- Adjudicated fracture: subjects with any event (%) ([2]; On-Study, N = 2200): (3.0) %
- Atraumatic lower limb amputation: subjects with any event (%) ([2]; On-Study, N = 2200): (3.2) %
- Adverse Events Leading to Discontinuation N (%) ([2]; On-Treatment, N = 2200): 267 (12.1)
- Adverse Events Related to Study Drug N (%) ([2]; On-Treatment, N = 2200): 469 (21.3)
- Adverse Events Related to Study Drug and Leading to Discontinuation N (%) ([2]; On-Treatment, N = 2200): 75 (3.4)
- Any Adverse Events N (%) ([2]; On-Treatment, N = 2200): 1784 (81.1)
- Death (fatal adverse event) N (%) ([2]; On-Treatment, N = 2200): 109 (5.0)
- Renal related adverse events: total subjects with the AEs (%) ([2]; On-Treatment, N = 2200): (13.2) %
- Serious Adverse Events Leading to Discontinuation N (%) ([2]; On-Treatment, N = 2200): 134 (6.1)
- Serious Adverse Events N (%) ([2]; On-Treatment, N = 2200): 737 (33.5)
- Serious Adverse Events Related to Study Drug N (%) ([2]; On-Treatment, N = 2200): 62 (2.8)
- Serious Adverse Events Related to Study Drug and Leading to Discontinuation N (%) ([2]; On-Treatment, N = 2200): 16 (0.7)
- Renal related adverse events: incidence rate ([2]; Table 8): 57.12 per 1000 person-years
- Overall incidence rate of neoplasms ([2]; between the treatment groups): low and balanced between the treatment groups
- Adjudicated diabetic ketoacidosis (DKA) IRD ([2]; canagliflozin compared to placebo): 1.73 per 1,000 subject-years
- Adjudicated RCC incidence rate ([2]; canagliflozin group): 0.17 per 1000 patient-years
- Adjudicated renal cell carcinoma (RCC): subjects ([2]; canagliflozin group): 1 subject
- Adjudicated renal cell carcinoma (RCC): subjects (%) ([2]; canagliflozin group): < 0.1%
- Adverse event cited as reason for treatment discontinuation ([2]; canagliflozin group): 12%
- Female breast cancer incidence rate ([2]; canagliflozin group): 4.08 per 1000 patient-years
- Hyperkalemia adverse events incidence rate ([2]; canagliflozin group): 29.74 per 1,000 subject-years
- Renal-related adverse events: incidence rate ([2]; canagliflozin group): 57.12 per 1,000 subject-years
- Volume depletion adverse events incidence rate ([2]; canagliflozin group): 28.36 per 1,000 subject-years
- Malignancy (Breast) IRD, Canagliflozin vs. Placebo [2, 6]: 2.49 /1000 subject years
- Malignancy (Breast) n (%) [2, 6]: 8 (1.1)
- Malignancy (Breast) rate [2, 6]: 4.08 /1000 subject years
- Adverse Events Leading to Discontinuation rate ([2]; exposure adjusted): 52.59 /1000 pt-yrs
- Adverse Events Related to Study Drug and Leading to Discontinuation rate ([2]; exposure adjusted): 14.77 /1000 pt-yrs
- Adverse Events Related to Study Drug rate ([2]; exposure adjusted): 92.38 /1000 pt-yrs
- Death (fatal adverse event) rate ([2]; exposure adjusted): 21.47 /1000 pt-yrs
- Serious Adverse Events Leading to Discontinuation rate ([2]; exposure adjusted): 26.39 /1000 pt-yrs
- Serious Adverse Events Related to Study Drug and Leading to Discontinuation rate ([2]; exposure adjusted): 3.15 /1000 pt-yrs
- Serious Adverse Events Related to Study Drug rate ([2]; exposure adjusted): 12.21 /1000 pt-yrs
- Serious Adverse Events rate ([2]; exposure adjusted): 145.17 /1000 pt-yrs
- Any Adverse Events rate ([2]; exposure adjusted, On-Treatment): 351.40 /1000 pt-yrs
- Reports of pheochromocytoma or testicular cell cancer ([2]; in the study): no reports
- Malignancy (Bladder) IRD, Canagliflozin vs. Placebo ([2]; post-randomization): 0.16 /1000 subject years
- Malignancy (Bladder) rate ([2]; post-randomization): 1.73 /1000 subject years
- Malignancy (Bladder) n (%) ([2]; post-randomization, N = 2200): 10 (0.5)
- Acute kidney injury (%) [2, 7]: (3.9) %
- Acute kidney injury n [2, 7]: 86
- Anuria (%) [2, 7]: (<0.1) %
- Anuria n [2, 7]: 1
- Azotemia n [2, 7]: 0
- Blood Creatinine increased (%) [2, 7]: (6.5) %
- Blood Creatinine increased n [2, 7]: 144
- Blood urea increased (%) [2, 7]: (1.0) %
- Blood urea increased n [2, 7]: 21
- Glomerular filtration rate decreased (%) [2, 7]: (3.1) %
- Glomerular filtration rate decreased n [2, 7]: 68
- Nephropathy toxic n [2, 7]: 0
- Renal failure (%) [2, 7]: (0.5) %
- Renal failure n [2, 7]: 10
- Renal impairment (%) [2, 7]: (2.3) %
- Renal impairment n [2, 7]: 50
